By IC50 is commonly meant the concentration at which inhibition is half-maximal.

Each structure is given as a SMILES string.

This is an account of results in BindingDB's records for patent US20250270222 (Satellos Bioscience, 2025).

Assay [1] deals with T1, Cyclin-G-associated kinase [25-335] (Human, UniProt O14976).
T1 construct: 25-335
T1 sequence (O14976 whole entry): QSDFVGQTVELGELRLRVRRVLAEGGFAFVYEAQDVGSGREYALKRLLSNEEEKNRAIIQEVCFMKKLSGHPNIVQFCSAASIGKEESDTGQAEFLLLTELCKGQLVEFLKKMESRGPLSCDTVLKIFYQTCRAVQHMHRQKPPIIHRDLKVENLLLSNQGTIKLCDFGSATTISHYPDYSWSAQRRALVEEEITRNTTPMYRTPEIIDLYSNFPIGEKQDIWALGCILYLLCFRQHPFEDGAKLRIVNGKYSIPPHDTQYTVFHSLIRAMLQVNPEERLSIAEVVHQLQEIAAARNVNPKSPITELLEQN
The assay is described as follows: GAK pSENs Assay. From the text: This example describes one illustrative method for determining the IC50 of the compounds of the present invention against GAK (amino acids Q25-N335).

The target in assay [2] is T2, BMP-2-inducible protein kinase [38-345,K320A,K321A] (Human, UniProt Q9NSY1, K320A/K321A).
T2 construct: 38-345
T2 sequence (Q9NSY1 38-345 K320A/K321A): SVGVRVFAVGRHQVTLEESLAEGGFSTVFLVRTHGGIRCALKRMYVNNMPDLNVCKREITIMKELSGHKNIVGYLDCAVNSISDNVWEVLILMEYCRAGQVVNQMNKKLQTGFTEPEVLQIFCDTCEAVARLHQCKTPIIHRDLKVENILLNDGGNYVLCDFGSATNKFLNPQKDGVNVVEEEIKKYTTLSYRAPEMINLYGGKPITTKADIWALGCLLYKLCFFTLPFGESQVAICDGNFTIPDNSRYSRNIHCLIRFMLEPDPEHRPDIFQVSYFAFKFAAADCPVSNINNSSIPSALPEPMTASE
The assay is described as follows: BIKE pSENs Assay. As for the experimental part: BIKE protein was dissolved at 20 nM in 1× enzyme solution (50 mM HEPES pH7.5, 10 mM MgCl2, 1 mM DTT, 1% glycerol, 0.5 mM EGTA, 0.01% Briji35, 0.02% BSA) and 12.5 ul was incubated with 250 nl DMSO or 250 nl compound in DMSO at 25° C. for 15 min. The reaction was started by addition of 12.5 ul of 30 uM AQT0759 (Assayquant, CSKS-AQT0759B) and 40 uM ATP which were diluted in 1× substrate dilution buffer (50 mM HEPES pH7.5, 10 mM MgCl2. 1 mM DTT, 1% glycerol, 0.5 mM EGTA, 0.01% Briji35).

Consider `CN(CCN1C[C@@H](OC(=O)N2CCN(c3ccn4ncc(-c5cccnc5OC5CC5)c4n3)CC2)CC1=O)C(=O)OC(C)(C)C` [US20250270222, Compound I-35], for which the IC50 in assay [1] and in assay [2] was greater than 1.5 µM in each case.
